Patent US5783568A, “Methods for treating cancer and other cell proliferative diseases” (Sugen, Inc., priority 1994, dated 1998)
Entries after “also recorded” stand apart in the source; their conditions may differ.

Assays:
sFGFR = test: aFGF/sFGFR/heparin complex formation by non-denaturing PAGE; type: binding, human; settings: aFGF alone or heparin alone
Method: aFGF, heparin or a mixture of aFGF and heparin were added to sFGFR. Free aFGF and sFGFR were separated from the complexes by gel-filtration, and fractions containing the complexes were analyzed by non-denaturing PAGE. Proteins were visualized by staining with Coomasie Brilliant blue. Various oligomerization states of aFGF/sFGFR are detected only in the presence of heparin.
aFGF alone, or a pre-incubated mixture of heparin and aFGF (molar ratio 1:10) was added to a solution containing sFGFR. The mixtures were then incubated for 20 min at room temperature in 20 mM Hepes pH 7.5, 200 mM NaCl. Size-exclusion chromatography, using a Superose 12 column (Pharmacia), was then employed to separate free aFGF and sFGFR from the complex that formed. Fractions containing the isolated complexes were pooled, and analyzed by non-denaturing PAGE (4-15% gradient gels), using the Phastsystem (Pharmacia). Gels were stained with Coomassie Blue. In the case of the sFGFR/heparin mixture (FIG. 4, lane 2), heparin was simply added to the sFGFR solution prior to electrophoresis.
The requirement of both heparin and aFGF for the induction of sFGFR dimerization was also confirmed in a second experimental system. sFGFR was incubated with aFGF alone, or with aFGF plus heparin.

[1] = molecular target: sFGFR (soluble extracellular domain of FGFR2 (bek)); test: Isothermal titration calorimetry, aFGF binding to sFGFR; parameters: species or system human; settings: ITC
Description: A plasmid encoding the extracellular, ligand-binding domain of human FGFR2 (residues 1-355) was constructed using standard oligonucleotide-directed mutagenesis (Amersham) to introduce a translational termination codon immediately prior to the beginning of the single transmembrane domain of the receptor (Dionne et al., 1990). BamHI and SacII restriction sites were introduced 3' to the new termination codon. An XbaI-SacII fragment was isolated from the replicative form (RF) of this M13 mutagenesis product, filled in using T4 DNA polymerase (Boehringer-Mannheim) and inserted into the SmaI site of the expression vector pCVN (Dionne et al., 1990). This expression vector, which contains both the neomycin resistance and the dihydrofolate reductase genes for selection and amplification, was transfected into CHO cells following published procedures. Wigler et al., 1979, Cell 16:777-785.
The binding of aFGF to sFGFR was studied using the technique of isothermal titration calorimetry (ITC). In this technique the heat liberated (or absorbed) upon binding is monitored as small aliquots of ligand are added sequentially to a solution of the receptor at known concentration, which is maintained at constant temperature. […]

| Kd ([1]; single class of binding sites, mean ± SD of three experiments, no added heparin) | Substance | mobility of sFGFR in non-denaturing PAGE (sFGFR) | effect of heparin on the aFGF/sFGFR binding parameters ([1]; sFGFR titrated into mixture of heparin and aFGF) |
| --- | --- | --- | --- |
| 528 ± 173 nM | aFGF: aFGF was expressed in E. coli and purified by binding to a heparin-sepharose column | reduced slightly | – |
| – | heparin | no significant effect upon the migration of sFGFR | no effect upon the binding parameters could be detected; also recorded: does not detectably affect the interaction; also recorded: does not influence the affinity of the aFGF/sFGFR interaction |
